From PMC8398766, “Do Small Molecules Activate the TrkB Receptor in the Same Manner as BDNF? Limitations of Published TrkB Low Molecular Agonists and Screening for Novel TrkB Orthosteric Agonists” (Pharmaceuticals, 2021)
“Also recorded” adds a separate entry of the source.

B1: BDNF: Brain-derived neurotrophic factor, endogenous TrkB receptor agonist (protein, UniProt P23560 19-247, looked up)
Neurotrophic factor BDNF …: APMKEANIRGQGGLAYPGVRTHGTLESVNGPKAGSRGLTSLADTFEHVIEELLDEDQKVRPNEENNKDADLYTSRVMLSSQVPLEPPLLFLLEEYKNYLDAANMSMRVRRHSDPARRGELSVCDSISEWVTAADKKTAVDMSGGTVTVLEKVPVSKGQLKQYFYETKCNPMGYTKEGCRGIDKRHWNSQCRTTQSYVRALTMDSKKRIGWRFIRIDTSCVCTLTIKRGR

Columns and labels:
[1] = test system: TrkB and downstream proteins (PLCγ1, Akt1, ERK1/2); experiment: Downstream signaling immunoblot, RA-differentiated SH-SY5Y cell line; assay type: cell-based; settings: for Phosphorylation of TrkB and downstream proteins (PLCγ1, Akt1, ERK1/2): RA-differentiated SH-SY5Y, 1, 10, 100 μM, 15 min
Protocol: The SH-SY5Y cell line was purchased from MilliporeSigma and cultured in growth medium: MEM (w/Earle’s Salts; w/L-Glutamine) + Ham’s F12 (w/L-Glutamine) (1:1 v/v), 1 × Antibiotic-Antimycotic, 1 × MEM Non-Essential Amino Acids (all reagents from Biowest, Riverside, MO, USA) and 15% FBS (Gibco, Thermo Fisher Scientific, Waltham, MA, USA). Cells were passaged using 0.25% Trypsin-EDTA (Biowest) and cultured in standard conditions (5% CO2, 37 °C with 95% relative humidity).
To differentiate SH-SY5Y, cells were seeded in a cell culture flask at a density of 10,000 cells/cm^2 in standard growth medium containing 10 μM retinoic acid (RA; MilliporeSigma) and cultured for 7 consecutive days. Then, differentiated cells were harvested by trypsinization (Trypsin-EDTA 1×, 3 min at 37 °C), centrifuged (250× g; 5 min at 25 °C) and counted. The desired experiment cells were seeded in differentiation medium (MEM:Ham’s F12 growth medium +10 μM RA) in multi-well plates at the following densities: 1,000,000 cells/well on a 6-well plate for lysate collection and immunoblot analysis, and 12,000 cells/well into a PDL-treated 96-well plate (BioCoat™, Corning Inc.) for neuroprotection experiments.
(§1) On the day of the experiments, cells were starved for 5 h with appropriate culture medium. SN56 T48 cells were treated with reference compounds at 100 μM or 1, 10, or 100 μM concentrations of the selected molecules, and 1, 10, and 100 ng/mL of BDNF. Differentiated SH-SY5Y cells were treated with 1, 10, or 100 μM concentrations of the tested molecules and 1, 10, and 100 ng/mL of BDNF for 15 min. For compound specificity, the evaluation cell lines were first pretreated with 1 μM K252a (MilliporeSigma, Saint Louis, MO, USA) for 15 min and then cotreated with 100 μM concentrations of the tested molecules.
(§2) Compound treatment was stopped by lysing cells with N-PER™ Neuronal Protein Extraction Reagent (Thermo Fisher Scientific) containing 1 × PhosSTOP™ (Roche, Basel, Switzerland), 1 × Halt Protease Inhibitor Single-Use Cocktail (ThermoFisher Scientific) and 5 mM EDTA. The lysates were collected by scraping, and centrifuged (8000× g; 10 min at 4 °C), and the protein concentration was determined using a BCA Pierce kit (ThermoFisher Scientific). The lysates were stored at −80 °C until further processing. Samples containing 20 μg of protein were further denatured in 4 × Laemli Buffer with 5% β-mercaptoethanol at 95 °C for 5 min and electrophoresed on gels prepared using a 10% TGX Stain-Free™ FastCast™ Acrylamide Kit (Bio-Rad). Afterwards, the proteins were transferred (wet transfer, 100 V, 60 min) onto nitrocellulose membranes (GE Healthcare, Chicago, IL, USA), which were blocked in 5% BSA in TBS-T (TBS + 0.1% Tween20) for 2 h. […] After repeated washes (TBS-T), the proteins were detected with HRP-conjugated anti-rabbit antibodies (1:4000, RT, 2 h) (Cell Signaling Technology), and the blots were incubated with Clarity Max ECL Western Blotting Substrate (Bio-Rad). Blot images and chemiluminescence signals were captured using a ChemiDoc MP Imaging System, and densitometry values were calculated using the Image Lab software (Bio-Rad). […]

[2] = test system: TrkB and downstream proteins (PLCγ1, Akt1, ERK1/2); experiment: Downstream signaling immunoblot, SN56 T48 cell line; assay type: cell-based; settings: for Phosphorylation of TrkB and downstream proteins (PLCγ1, Akt1, ERK1/2): compounds up to 100 μM, BDNF up to 100 ng/mL, 15 min
Protocol: The SN56 T48 cell line with stable overexpression of the TrkB receptor was purchased from Emory University (Atlanta, GA, USA) and cultivated according to the protocol described in Jang et al., 2010 [12]. The cell lines were cultivated with the following reagents: DMEM High Glucose, fetal bovine serum (FBS), Penicillin-Streptomycin Solution 100×, and Trypsin-EDTA 1×; all were purchased from Biowest, and G418 was from ThermoFisher Scientific. For the ELFI experiments, cells were seeded (8000/well) on a PDL-treated 96-well plate (BioCoat™, Corning Inc., Corning, NY, USA) and 6-well plate (400,000/well) for lysate collection and immunoblot analysis.
as §1, §2

Row | Molecule | Phosphorylation of TrkB and downstream proteins (PLCγ1, Akt1, ERK1/2) [1] | Phosphorylation of TrkB and downstream proteins (PLCγ1, Akt1, ERK1/2) [2] | Activation of downstream proteins (Akt1 and ERK1/2) after inhibition of TrkB kinase by K252a ([2]; K252a 1 μM 15 min before 100 μM compound) | Effect of cotreatment with K252a on the compound's effects ([1]; K252a 1 μM)
1 | O=c1cc(-c2ccccc2)oc2c(O)c(O)ccc12 [7,8-DHF, 7,8-dihydroxyflavone] | did not result in the expected effect; also recorded: lack of 7,8-DHF activity | did not induce; also recorded: lack of 7,8-DHF activity | – | –
2 | O=C1C(O)=C(c2c[nH]c3ccccc23)C(=O)C(O)=C1c1c[nH]c2ccccc12 [CPL503052, didemethylasterriquinone D] | able to induce the phosphorylation of TrkB, Akt1, ERK1/2, and PLCγ1 | demonstrated the activation of the TrkB receptor and phosphorylation of relevant downstream proteins | did not repress | –
3 | C=CC(C)(C)c1[nH]c2ccccc2c1C1=C(O)C(=O)C(c2c[nH]c3c(CC=C(C)C)cccc23)=C(O)C1=O [DMAQ-B1] | able to induce the phosphorylation of TrkB, Akt1, ERK1/2, and PLCγ1 | – | – | did not inhibit
4 | B1 | induced the TrkB receptor and phosphorylation of downstream proteins | significantly increased phosphorylation | – | –
